Reference: patent US20230085307A1, “PYRIDAZINONE COMPOUND AND HERBICIDE” (NISSAN CHEMICAL CORPORATION, priority 2019, published 2023)

What was measured:
southern crabgrass [1] = test: Test Example 5: herbicidal effect by foliage application, plastic box (Table 20, symbol F); format: in vivo, southern crabgrass (Digitaria ciliaris); settings: foliage application, evaluated three weeks after application
Outline: (§1)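 Foliar spray test: emulsion formulation diluted in water to a set application rate, sprayed onto 14-day-old plants raised in diluvial soil at 25° C to 30° C under glass. Both herbicidal effect and crop effect rated visually three weeks later.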

barnyard grass [2] = test: Test Example 4: herbicidal effect by soil treatment (Table 19, symbol H); format: in vivo, barnyard grass (Echinochloa crus-galli); settings: amount of applied herbicide 320 g/ha
Outline: (§2)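 Step 1: sow seeds in sterilized diluvial soil, cover ~1.5 cm. Step 2: spray diluted emulsion onto soil surface at predetermined rate. Step 3: greenhouse, 25–30° C, three weeks. Step 4: grade effect on each plant by earlier criteria.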

wild oat [3] = test: Test Example 5: herbicidal effect by foliage application, plastic box (Table 20, symbol I); format: in vivo, wild oat (Avena fatua); settings: foliage application, evaluated three weeks after application
Outline: as §1

Chinese sprangletop = test: Test Example 3: herbicidal effect by foliage application, Wagner pot (Table 18, symbol D); format: in vivo, chinese sprangletop (Leptochloa chinensis); settings: amount of applied herbicide 320 g/ha
Outline: (§3)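 Plants were sown in alluvial soil held under 0.1–0.5 cm standing water and grown 14 days in a greenhouse at 25–30 °C. An emulsifiable formulation, water-diluted to the set dose, was then sprayed onto the foliage, and effects were scored three weeks later using previously defined criteria.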

velvetleaf [4] = test: Test Example 4: herbicidal effect by soil treatment (Table 19, symbol M); format: in vivo, velvetleaf (Abutilon theophrasti); settings: amount of applied herbicide 320 g/ha
Outline: as §2

lambsquarters [5] = test: Test Example 4: herbicidal effect by soil treatment (Table 19, symbol O); format: in vivo, lambsquarters (Chenopodium album); settings: amount of applied herbicide 320 g/ha
Outline: as §2

chickweed [6] = test: Test Example 4: herbicidal effect by soil treatment (Table 19, symbol P); format: in vivo, common chickweed (Stellaria media); settings: amount of applied herbicide 320 g/ha
Outline: as §2

lambsquarters [7] = test: Test Example 5: herbicidal effect by foliage application, plastic box (Table 20, symbol O); format: in vivo, lambsquarters (Chenopodium album); settings: foliage application, evaluated three weeks after application
Outline: as §1

southern crabgrass [8] = test: Test Example 4: herbicidal effect by soil treatment (Table 19, symbol F); format: in vivo, southern crabgrass (Digitaria ciliaris); settings: amount of applied herbicide 320 g/ha
Outline: as §2

chickweed [9] = test: Test Example 5: herbicidal effect by foliage application, plastic box (Table 20, symbol P); format: in vivo, common chickweed (Stellaria media); settings: foliage application, evaluated three weeks after application
Outline: as §1

barnyard grass [10] = test: Test Example 5: herbicidal effect by foliage application, plastic box (Table 20, symbol H); format: in vivo, barnyard grass (Echinochloa crus-galli); settings: foliage application, evaluated three weeks after application
Outline: as §1

persian speedwell [11] = test: Test Example 5: herbicidal effect by foliage application, plastic box (Table 20, symbol R); format: in vivo, Persian speedwell (Veronica persica); settings: foliage application, evaluated three weeks after application
Outline: as §1

Italian ryegrass [12] = test: Test Example 5: herbicidal effect by foliage application, plastic box (Table 20, symbol K); format: in vivo, Italian ryegrass (Lolium multiflorum); settings: foliage application, evaluated three weeks after application
Outline: as §1

velvetleaf [13] = test: Test Example 5: herbicidal effect by foliage application, plastic box (Table 20, symbol M); format: in vivo, velvetleaf (Abutilon theophrasti); settings: foliage application, evaluated three weeks after application
Outline: as §1

wild oat [14] = test: Test Example 4: herbicidal effect by soil treatment (Table 19, symbol I); format: in vivo, wild oat (Avena fatua); settings: amount of applied herbicide 320 g/ha
Outline: as §2

false cleavers = test: Test Example 5: herbicidal effect by foliage application, plastic box (Table 20, symbol Q); format: in vivo, false cleavers (Galium spurium); settings: foliage application, evaluated three weeks after application
Outline: as §1

redroot pigweed [15] = test: Test Example 5: herbicidal effect by foliage application, plastic box (Table 20, symbol N); format: in vivo, redroot pigweed (Amaranthus retroflexus); settings: foliage application, evaluated three weeks after application
Outline: as §1

windgrass [16] = test: Test Example 4: herbicidal effect by soil treatment (Table 19, symbol L); format: in vivo, windgrass (Apera spica-venti); settings: amount of applied herbicide 320 g/ha
Outline: as §2

redroot pigweed [17] = test: Test Example 4: herbicidal effect by soil treatment (Table 19, symbol N); format: in vivo, redroot pigweed (Amaranthus retroflexus); settings: amount of applied herbicide 320 g/ha
Outline: as §2

rice flat sedge = test: Test Example 3: herbicidal effect by foliage application, Wagner pot (Table 18, symbol E); format: in vivo, rice flat sedge (Cyperus iria); settings: amount of applied herbicide 320 g/ha
Outline: as §3

green foxtail [18] = test: Test Example 5: herbicidal effect by foliage application, plastic box (Table 20, symbol G); format: in vivo, green foxtail (Setaria viridis); settings: foliage application, evaluated three weeks after application
Outline: as §1

barnyard grass [19] = test: Test Example 3: herbicidal effect by foliage application, Wagner pot (Table 18, symbol H); format: in vivo, barnyard grass (Echinochloa crus-galli); settings: amount of applied herbicide 320 g/ha
Outline: as §3

persian speedwell [20] = test: Test Example 4: herbicidal effect by soil treatment (Table 19, symbol R); format: in vivo, Persian speedwell (Veronica persica); settings: amount of applied herbicide 320 g/ha
Outline: as §2

Italian ryegrass [21] = test: Test Example 4: herbicidal effect by soil treatment (Table 19, symbol K); format: in vivo, Italian ryegrass (Lolium multiflorum); settings: amount of applied herbicide 320 g/ha
Outline: as §2

green foxtail [22] = test: Test Example 4: herbicidal effect by soil treatment (Table 19, symbol G); format: in vivo, green foxtail (Setaria viridis); settings: amount of applied herbicide 320 g/ha
Outline: as §2

blackgrass [23] = test: Test Example 4: herbicidal effect by soil treatment (Table 19, symbol J); format: in vivo, blackgrass (Alopecurus myosuroides); settings: amount of applied herbicide 320 g/ha
Outline: as §2

blackgrass [24] = test: Test Example 5: herbicidal effect by foliage application, plastic box (Table 20, symbol J); format: in vivo, blackgrass (Alopecurus myosuroides); settings: foliage application, evaluated three weeks after application
Outline: as §1

windgrass [25] = test: Test Example 5: herbicidal effect by foliage application, plastic box (Table 20, symbol L); format: in vivo, windgrass (Apera spica-venti); settings: foliage application, evaluated three weeks after application
Outline: as §1

## CCCOc1cccc(-c2sc3ccc(F)cc3c2-c2c(OC(=O)CCC)c(C)nn(C)c2=O)c1 [2-214]
Southern crabgrass [1]; 320 g/ha
  herbicidal effect on F: southern crabgrass (criteria 0-5): 4 (Herbicidal rate of 70% or more and less than 90%)
Barnyard grass [2]
  H: barnyard grass, herbicidal effect rating: 3 (Herbicidal rate of 40% or more and less than 70%)
Wild oat [3]; 320 g/ha
  herbicidal effect on I: wild oat (criteria 0-5): 0 (Herbicidal rate of 5% or less (almost no effect))
Chinese sprangletop
  herbicidal effect on D: Chinese sprangletop: 3 (Herbicidal rate of 40% or more and less than 70%)
Velvetleaf [4]
  M: velvetleaf, herbicidal effect rating: 3 (Herbicidal rate of 40% or more and less than 70%)
Lambsquarters [5]
  O: lambsquarters, herbicidal effect rating: 2 (Herbicidal rate of 20% or more and less than 40%)
Chickweed [6]
  P: chickweed, herbicidal effect rating: 3 (Herbicidal rate of 40% or more and less than 70%)
Lambsquarters [7]; 320 g/ha
  herbicidal effect on O: lambsquarters (criteria 0-5): 2 (Herbicidal rate of 20% or more and less than 40%)
Southern crabgrass [8]
  F: southern crabgrass, herbicidal effect rating: 4 (Herbicidal rate of 70% or more and less than 90%)
Chickweed [9]; 320 g/ha
  herbicidal effect on P: chickweed (criteria 0-5): 5 (Herbicidal rate of 90% or more (almost completely withered))
Barnyard grass [10]; 320 g/ha
  herbicidal effect on H: barnyard grass (criteria 0-5): 1 (Herbicidal rate of 5% or more and less than 20%)
Persian speedwell [11]; 320 g/ha
  herbicidal effect on R: persian speedwell (criteria 0-5): 5 (Herbicidal rate of 90% or more (almost completely withered))
Italian ryegrass [12]; 320 g/ha
  herbicidal effect on K: Italian ryegrass (criteria 0-5): 1 (Herbicidal rate of 5% or more and less than 20%)
Velvetleaf [13]; 320 g/ha
  herbicidal effect on M: velvetleaf (criteria 0-5): 3 (Herbicidal rate of 40% or more and less than 70%)
Wild oat [14]
  I: wild oat, herbicidal effect rating: 0 (Herbicidal rate of 5% or less (almost no effect))
False cleavers; 320 g/ha
  herbicidal effect on Q: false cleavers (criteria 0-5): 2 (Herbicidal rate of 20% or more and less than 40%)
Redroot pigweed [15]; 320 g/ha
  herbicidal effect on N: redroot pigweed (criteria 0-5): 4 (Herbicidal rate of 70% or more and less than 90%)
Windgrass [16]
  L: windgrass, herbicidal effect rating: 0 (Herbicidal rate of 5% or less (almost no effect))
Redroot pigweed [17]
  N: redroot pigweed, herbicidal effect rating: 5 (Herbicidal rate of 90% or more (almost completely withered))
Rice flat sedge
  herbicidal effect on E: rice flat sedge: 4 (Herbicidal rate of 70% or more and less than 90%)
Green foxtail [18]; 320 g/ha
  herbicidal effect on G: green foxtail (criteria 0-5): 4 (Herbicidal rate of 70% or more and less than 90%)
Barnyard grass [19]
  herbicidal effect on H: barnyard grass: 3 (Herbicidal rate of 40% or more and less than 70%)
Persian speedwell [20]
  R: persian speedwell, herbicidal effect rating: 5 (Herbicidal rate of 90% or more (almost completely withered))
Italian ryegrass [21]
  K: Italian ryegrass, herbicidal effect rating: 0 (Herbicidal rate of 5% or less (almost no effect))
Green foxtail [22]
  G: green foxtail, herbicidal effect rating: 4 (Herbicidal rate of 70% or more and less than 90%)
Blackgrass [23]
  J: blackgrass, herbicidal effect rating: 0 (Herbicidal rate of 5% or less (almost no effect))
Blackgrass [24]; 320 g/ha
  herbicidal effect on J: blackgrass (criteria 0-5): 0 (Herbicidal rate of 5% or less (almost no effect))
Windgrass [25]; 320 g/ha
  herbicidal effect on L: windgrass (criteria 0-5): 0 (Herbicidal rate of 5% or less (almost no effect))

## Cc1nn(C)c(=O)c(-c2c(-c3ccc(OC(F)F)cc3)sc3ccc(F)cc23)c1OS(=O)(=O)C(C)C [2-309]
Southern crabgrass [1]; AAH 320 g/ha
  F: southern crabgrass, herbicidal effect (criteria 0-5): 0 (Herbicidal rate of 5% or less (almost no effect))
Barnyard grass [2]
  herbicidal effect on H: barnyard grass: 0 (Herbicidal rate of 5% or less (almost no effect))
Wild oat [3]; AAH 320 g/ha
  I: wild oat, herbicidal effect (criteria 0-5): 1 (Herbicidal rate of 5% or more and less than 20%)
Chinese sprangletop
  herbicidal effect on D: Chinese sprangletop: 3 (Herbicidal rate of 40% or more and less than 70%)
Velvetleaf [4]
  herbicidal effect on M: velvetleaf: 1 (Herbicidal rate of 5% or more and less than 20%)
Lambsquarters [5]
  herbicidal effect on O: lambsquarters: 4 (Herbicidal rate of 70% or more and less than 90%)
Chickweed [6]
  herbicidal effect on P: chickweed: 3 (Herbicidal rate of 40% or more and less than 70%)
Lambsquarters [7]; AAH 320 g/ha
  O: lambsquarters, herbicidal effect (criteria 0-5): 5 (Herbicidal rate of 90% or more (almost completely withered))
Southern crabgrass [8]
  herbicidal effect on F: southern crabgrass: 0 (Herbicidal rate of 5% or less (almost no effect))
Chickweed [9]; AAH 320 g/ha
  P: chickweed, herbicidal effect (criteria 0-5): 5 (Herbicidal rate of 90% or more (almost completely withered))
Barnyard grass [10]; AAH 320 g/ha
  H: barnyard grass, herbicidal effect (criteria 0-5): 5 (Herbicidal rate of 90% or more (almost completely withered))
Persian speedwell [11]; AAH 320 g/ha
  R: persian speedwell, herbicidal effect (criteria 0-5): 5 (Herbicidal rate of 90% or more (almost completely withered))
Italian ryegrass [12]; AAH 320 g/ha
  K: Italian ryegrass, herbicidal effect (criteria 0-5): 4 (Herbicidal rate of 70% or more and less than 90%)
Velvetleaf [13]; AAH 320 g/ha
  M: velvetleaf, herbicidal effect (criteria 0-5): 5 (Herbicidal rate of 90% or more (almost completely withered))
Wild oat [14]
  herbicidal effect on I: wild oat: 0 (Herbicidal rate of 5% or less (almost no effect))
False cleavers; AAH 320 g/ha
  Q: false cleavers, herbicidal effect (criteria 0-5): 4 (Herbicidal rate of 70% or more and less than 90%)
Redroot pigweed [15]; AAH 320 g/ha
  N: redroot pigweed, herbicidal effect (criteria 0-5): 5 (Herbicidal rate of 90% or more (almost completely withered))
Windgrass [16]
  herbicidal effect on L: windgrass: 0 (Herbicidal rate of 5% or less (almost no effect))
Redroot pigweed [17]
  herbicidal effect on N: redroot pigweed: 5 (Herbicidal rate of 90% or more (almost completely withered))
Rice flat sedge
  herbicidal effect on E: rice flat sedge: 5 (Herbicidal rate of 90% or more (almost completely withered))
Green foxtail [18]; AAH 320 g/ha
  G: green foxtail, herbicidal effect (criteria 0-5): 5 (Herbicidal rate of 90% or more (almost completely withered))
Barnyard grass [19]
  herbicidal effect on H: barnyard grass: 5 (Herbicidal rate of 90% or more (almost completely withered))
Persian speedwell [20]
  herbicidal effect on R: persian speedwell: 5 (Herbicidal rate of 90% or more (almost completely withered))
Italian ryegrass [21]
  herbicidal effect on K: Italian ryegrass: 0 (Herbicidal rate of 5% or less (almost no effect))
Green foxtail [22]
  herbicidal effect on G: green foxtail: 0 (Herbicidal rate of 5% or less (almost no effect))
Blackgrass [23]
  herbicidal effect on J: blackgrass: 0 (Herbicidal rate of 5% or less (almost no effect))
Blackgrass [24]; AAH 320 g/ha
  J: blackgrass, herbicidal effect (criteria 0-5): 3 (Herbicidal rate of 40% or more and less than 70%)
Windgrass [25]; AAH 320 g/ha
  L: windgrass, herbicidal effect (criteria 0-5): 1 (Herbicidal rate of 5% or more and less than 20%)
